According to patent publication EP0360258B1, “Amino acid quinoline and naphthyridine derivatives” (ABBOTT LABORATORIES, priority 1988, dated 1990):
≈ marks a conversion by molar mass, not a printed value. Where a name gives a salt, the structure may show the parent alone. Read-outs that look alike come from different tables or passages of the source.

Assays:
Ps.Aeruginosa A5007 = assay: Second in vitro antibacterial test, MIC (BHIB); assay type: cell-based; conditions: Brain Heart Infusion Broth (BHIB)
E.Coli Juhl = assay: Second in vitro antibacterial test, MIC (BHIB); assay type: cell-based; conditions: Brain Heart Infusion Broth (BHIB)
Strep. pyogenes EES 61 = assay: Second in vitro antibacterial test, MIC (BHIB); assay type: cell-based
Stap. Aureus CMX 553 = assay: Second in vitro antibacterial test, MIC (BHIB); assay type: cell-based; conditions: Brain Heart Infusion Broth (BHIB)
[1] = Brain Heart Infusion Broth (BHIB)
[2] = Pseudomonas aeruginosa, read-out: MIC
[3] = Escherichia coli, read-out: MIC
[4] = Streptococcus pyogenes, EES61, Brain Heart Infusion Broth (BHIB), read-out: MIC
[5] = Staphylococcus aureus, read-out: MIC

| Structure (SMILES) | MIC (Ps.Aeruginosa A5007) | MIC (E.Coli Juhl) | MIC (Strep. pyogenes EES 61; [1]) | MIC (Stap. Aureus CMX 553) | MIC (Ps.Aeruginosa A5007; [2]) | MIC (E.Coli Juhl; [3]) | MIC (Strep. pyogenes EES 61; [4]) | MIC (Stap. Aureus CMX 553; [5]) | solubility (physchem; pH 7.4) | solubility (physchem; water) |
| --- | --- | --- | --- | --- | --- | --- | --- | --- | --- | --- |
| CCCC(N)C(=O)NC1CCN(c2cc3c(cc2F)c(=O)c(C(=O)O)cn3-c2ccc(F)cc2)C1 (stereo not drawn) [Example 26h] | 6.2 µg/mL (≈ 12.8 µM) | 0.78 µg/mL (≈ 1.61 µM) | 1.56 µg/mL (≈ 3.22 µM) | 0.78 µg/mL (≈ 1.61 µM) |  |  |  |  |  |  |
| CCC[C@H](NC(=O)CNC(=O)CN)C(=O)NC1CCN(c2nc3c(cc2F)c(=O)c(C(=O)O)cn3-c2ccc(F)cc2F)C1 (stereo partly drawn) [Example 30] |  |  |  |  | > 100 µg/mL | 25 µg/mL (≈ 40.5 µM) | 100 µg/mL (≈ 162 µM) | 25 µg/mL (≈ 40.5 µM) |  |  |
| Cl.Cl.NCCCC[C@H](N)C(=O)NC1CCN(c2nc3c(cc2F)c(=O)c(C(=O)O)cn3-c2ccc(F)cc2F)C1 (stereo partly drawn) [Example 46, 7-(3-Lys-amino-1-pyrrolidinyl)-1-(2,4-difluorophenyl)-6-fluoro-1,4-dihydro-4-oxo-1,8-naphthyridine-3-carboxylic acid dihydrochloride] | >100 µg/mL | 3.12 µg/mL | 100 µg/mL | 100 µg/mL |  |  |  |  |  |  |
| CSCC[C@H](NC(=O)[C@@H](N)CCSC)C(=O)NC1CCN(c2nc3c(cc2F)c(=O)c(C(=O)O)cn3-c2ccc(F)cc2F)C1 (stereo partly drawn) [Example 55o, 7-(3-Met-Met-amino-1-pyrrolidinyl)-6-fluoro-1-(2,4-difluorophenyl)-1,4-dihydro-4-oxo-1,8-naphthyridine-3-carboxylic acid] |  |  |  |  |  |  |  |  | 310 µg/mL (≈ 465 µM) | 22000 µg/mL (≈ 33000 µM) |
| CSCC[C@H](NC(=O)[C@@H](N)CC(C)C)C(=O)NC1CCN(c2nc3c(cc2F)c(=O)c(C(=O)O)cn3-c2ccc(F)cc2F)C1 (stereo partly drawn) [Example 55p, 7-(3-Leu-Met-amino-1-pyrrolidinyl)-6-fluoro-1-(2,4-difluorophenyl)-1,4-dihydro-4-oxo-1,8-naphthyridine-3-carboxylic acid] |  |  |  |  |  |  |  |  | 60 µg/mL (≈ 92.5 µM) | 23000 µg/mL (≈ 35500 µM) |
| CSCC[C@H](NC(=O)[C@H](C)N)C(=O)NC1CCN(c2nc3c(cc2F)c(=O)c(C(=O)O)cn3-c2ccc(F)cc2F)C1 (stereo partly drawn) [Example 55n, 7-(3-Ala-Met-amino-1-pyrrolidinyl)-6-fluoro-1-(2,4-difluorophenyl)-1,4-dihydro-4-oxo-1,8-naphthyridine-3-carboxylic acid] |  |  |  |  |  |  |  |  | 2500 µg/mL (≈ 4120 µM) | 20000 µg/mL (≈ 33000 µM) |
| CC(C)C(N)C(=O)NC1CCN(c2nc3c(cc2F)c(=O)c(C(=O)O)cn3-c2ccc(F)cc2F)C1 (stereo not drawn) [Example 19] |  |  |  |  |  |  |  |  | 410 µg/mL (≈ 814 µM) | > 10000 µg/mL |
| NCC(=O)NC1CCN(c2nc3c(cc2F)c(=O)c(C(=O)O)cn3-c2ccc(F)cc2F)C1 (stereo not drawn) [Example 7] |  |  |  |  | 12.5 µg/mL (≈ 27.1 µM) | 0.78 µg/mL (≈ 1.69 µM) | 0.78 µg/mL (≈ 1.69 µM) | 1.56 µg/mL (≈ 3.38 µM) |  |  |
| CS(=O)(=O)CC[C@H](N)C(=O)NC1CCN(c2nc3c(cc2F)c(=O)c(C(=O)O)cn3-c2ccc(F)cc2F)C1 (stereo partly drawn) [Example 31c, 7-[3-L-Methioninesulfone-Amino-1-Pyrrolidinyl]-1-(2,4-Difluorophenyl)-6-Fluoro-1,4-Dihydro-4-Oxo 1,8-Naphthyridine-3-Carboxylic Acid Hydrochloride] |  |  |  |  | > 100 µg/mL | 12.5 µg/mL | 25 µg/mL | 25 µg/mL | 30 µg/mL | > 35000 µg/mL |
| CCCC(N)C(=O)NC1CCN(c2cc3c(cc2F)c(=O)c(C(=O)O)cn3-c2ccc(F)cc2F)C1 (stereo not drawn) [Example 26b] | 6.2 µg/mL (≈ 12.3 µM) | 0.78 µg/mL (≈ 1.55 µM) | 1.56 µg/mL (≈ 3.1 µM) | 0.39 µg/mL (≈ 0.776 µM) |  |  |  |  |  |  |
| CCCC(N)C(=O)NC1CCN(c2nc3c(cc2F)c(=O)c(C(=O)O)cn3-c2ccc(F)cc2)C1 (stereo not drawn) [Example 26i] |  |  |  |  | 6.2 µg/mL (≈ 12.8 µM) | 0.39 µg/mL (≈ 0.803 µM) | 1.56 µg/mL (≈ 3.21 µM) | 1.56 µg/mL (≈ 3.21 µM) | 240 µg/mL (≈ 494 µM) | > 9000 µg/mL |
| CC(N)C(=O)NC(Cc1ccccc1)C(=O)NC1CCN(c2nc3c(cc2F)c(=O)c(C(=O)O)cn3-c2ccc(F)cc2F)C1 (stereo not drawn) [Example 11] |  |  |  |  | 128 µg/mL (≈ 206 µM) | 16 µg/mL (≈ 25.7 µM) |  | 16 µg/mL (≈ 25.7 µM) | 590 µg/mL (≈ 948 µM) | > 20000 µg/mL |
| CSCCC(N)C(=O)NC1CCN(c2nc3c(cc2F)c(=O)c(C(=O)O)cn3-c2ccc(F)cc2F)C1 (stereo not drawn) [Example 23] |  |  |  |  | 5 µg/mL (≈ 9.34 µM) | 3.12 µg/mL (≈ 5.83 µM) | 3.12 µg/mL (≈ 5.83 µM) | 3.12 µg/mL (≈ 5.83 µM) |  |  |
| CC(C)CC(N)C(=O)NC1CCN(c2nc3c(cc2F)c(=O)c(C(=O)O)cn3-c2ccc(F)cc2F)C1 (stereo not drawn) [Example 21] |  |  |  |  | 25 µg/mL (≈ 48.3 µM) | 1.56 µg/mL (≈ 3.01 µM) | 6.2 µg/mL (≈ 12 µM) | 1.56 µg/mL (≈ 3.01 µM) | 140 µg/mL (≈ 271 µM) | > 35000 µg/mL |
| NC(=O)C[C@H](N)C(=O)NC1CCN(c2nc3c(cc2F)c(=O)c(C(=O)O)cn3-c2ccc(F)cc2F)C1 (stereo partly drawn) [Example 41, 7-(3-L-Asparagine-amino-1-pyrrolidinyl)-1-(2,4-difluorophenyl)-6-fluoro-1,4-dihydro-4-oxo-1,8-naphthyridine-3-carboxylic acid hydrochloride] |  |  |  |  |  |  |  |  | 400 µg/mL | > 35000 µg/mL |
